Source: article PMC5789597, “Cytotoxicity of seputhecarpan D, thonningiol and 12 other phytochemicals from African flora towards human carcinoma cells” (BMC Complementary and Alternative Medicine, 2018)
Like-named read-outs stand apart in the source and are kept apart here.

Columns and labels:
[1] = test system: MCF-7 breast adenocarcinoma cells; assay: Neutral red (NR) uptake cytotoxicity assay, MCF7; format: cell-based, human; conditions: for IC50: Homo sapiens, MCF7, NR assay, 72 h incubation; for selectivity index, MCF7: IC50 in CRL2120 normal fibroblasts divided by IC50 in MCF7
Description: (§1) DMSO at 0.1% was used as solvent control.

[2] = test system: DLD-1 colorectal adenocarcinoma cells; assay: Neutral red (NR) uptake cytotoxicity assay, DLD-1; format: cell-based, human; conditions: for IC50: Homo sapiens, DLD-1, NR assay, 72 h incubation; for selectivity index, DLD-1: IC50 in CRL2120 normal fibroblasts divided by IC50 in DLD-1
Description: as §1

[3] = test system: HepG2 hepatocarcinoma cells; assay: Neutral red (NR) uptake cytotoxicity assay, HepG2; format: cell-based, human; conditions: for IC50: Homo sapiens, HepG2, NR assay, 72 h incubation; for selectivity index, HepG2: IC50 in CRL2120 normal fibroblasts divided by IC50 in HepG2
Description: as §1

[4] = test system: normal CRL2120 human skin fibroblasts; assay: Neutral red (NR) uptake cytotoxicity assay, normal fibroblasts; format: cell-based; conditions: Skin fibroblast, 72 h incubation
Description: as §1

[5] = Neutral red (NR) uptake cytotoxicity assay, Caco-2; conditions: human, Caco-2
Description: (§3) Four human carcinoma cell lines and one normal cell line were used. They were: DLD-1 and Caco-2 colorectal adenocarcinoma cell lines, HepG2 hepatocarcinoma cells, MCF-7 breast adenocarcinoma cells and the normal CRL2120 human skin fibroblasts. Caco-2 cells (from the ŞAP Institute of Ankara,Turkey andMCF-7 cells (from ATCC) provided by Prof. Dr. Tansu Koparal (Anadolu University, Eskisehir, Turkey),HepG2, DLD-1 and CRL2120 cells were obtained from American Type Culture Collection (ATCC); DMEM medium (Sigma-aldrich, Munich, Germany) was used to maintain cells as a monolayer and was supplemented with 10% fetal calf serum and 1% penicillin (100 U/mL)-streptomycin (100 μg/mL) in a humidified 5% CO2 atmosphere at 37 °C.
(§4) Dimethylsufoxide (DMSO) at less than 0.1% final concentration was used to dilute the tested samples. DMSO at 0.1% was used as solvent control. The incubation time was 72 h incubation in humidified 5% CO2 atmosphere at 37 °C, followed by NR coloration as previously described [23, 24]. ELx 808 Ultra Microplate Reader (Biotek) equipped with a 540 nm filter was used to measure the absorbance. Each experiment was performed at least three times, with three replicates each. The viability was evaluated based on a comparison with untreated cells. The IC50 values represented the sample’s concentrations required to inhibit 50% of cell proliferation and were calculated from a calibration curve by linear regression using Microsoft Excel [26] as follows: for each sample, the cell growth percentages at the different concentrations were used to draw the calibration curve with logarithmic regression obtained by 2 measuring points (one smaller and one larger than 50%) from where the IC50 value was deduced.

[6] = test system: Caco-2 colorectal adenocarcinoma cells; assay: Neutral red (NR) uptake cytotoxicity assay, Caco-2; conditions: read-out: IC50 values, Caco-2
Description: as §3, §4

[7] = test system: four tested cancer cell lines (MCF-7, DLD-1, Caco-2, HepG2); assay: Neutral red (NR) uptake cytotoxicity assay, summary over the four tested cancer cell lines; format: cell-based; conditions: Homo sapiens
Description: as §1

[8] = in vitro; conditions: human, Caco-2
Description: as §3, §4

[9] = test system: MCF-7 cells; assay: Cell cycle analysis and detection of apoptosis by flow cytometry; format: cell-based, human; conditions: for percentages of cells in sub-G0/G1 phase: MCF-7, 2 × IC50 (as printed in text); for percentages of cells in sub-G0/G1 phase / Growth (percentage of control) Sub-G0; percentage of cells in sub-G0/G1 phase: non-treated cells 3.1%; for Growth (percentage of control) Sub-G0; percentage of cells in sub-G0/G1 phase: MCF-7, 72 h, ¼ x IC50; for cell cycle arrest (phase): MCF-7 cells, 72 h
Protocol: Cells were tested in 6-well plates (3 mL, 1 × 10^5 cells/mL) and the incubation time was 72 h in humidified 5% CO2 atmosphere at 37 °C. […] Untreated cells (control) were used for comparison with treated cells. The BD FACS Aria I Cell Sorter Flow Cytometer (Becton-Dickinson, Germany) was then used for cell cycle analysis. For each sample, 10^4 cells were counted. For PI excitation, an argon-ion laser emitting at 488 nm was used. Cytographs were analyzed using BD FACSDiva™ Flow Cytometry Software Version 6.1.2 (Becton-Dickinson).

[10] = test system: caspases 3/7 in MCF-7 cells; assay: Caspase-Glo 3/7 assay; format: cell-based, human; conditions: MCF-7, 6 h, optimal activity generally at IC50, vs untreated control
Description: (§2) The BioTek Synergy™ HT multi-detection microplate reader was used to measure the luminescence and Caspase activity was expressed as percentage of the untreated control.

[11] = test system: caspase 9 in MCF-7 cells; assay: Caspase-Glo 9 assay; format: cell-based, human; conditions: MCF-7, 6 h, optimal activity generally at IC50, vs untreated control
Description: as §2

[12] = test system: MCF-7 cells; assay: Integrity of mitochondrial membrane potential (JC-1 staining, flow cytometry); format: cell-based, human; conditions: MCF-7, 72 h, IC50; control 6.0%
Protocol: Cells were tested in 6-well plates (3 mL, 1 × 10^5 cells/mL) and the incubation time was 72 h in humidified 5% CO2 atmosphere at 37 °C. The tested concentrations were ¼ × IC50, ½ × IC50 and IC50. Untreated cells (control) were used for comparison with treated cells. JC-1 staining was performed according to the manufacturer’s protocol as reported previously. Cells were then measured in a BD FACS Aria I Cell Sorter Flow Cytometer (Becton-Dickinson, Germany). The JC-1 signal was measured at an excitation wavelength of 561 nm (150 mW) and detected using a 586/15 nm band-pass filter. The signal was analyzed at an excitation wavelength of 640 nm (40 mW) and detected using a 730/45 nm bandpass filter. Cytographs were analyzed using BD FACSDiva™ Flow Cytometry Software Version 6.1.2 (Becton-Dickinson). All experiments were performed at least in triplicates.

[13] = test system: MCF-7 cells; assay: Reactive oxygen species production (H2DCFH-DA); format: cell-based, human; conditions: MCF-7, 24 h, at IC50, compared to non-treated cells
Protocol: Cells were tested in 6-well plates (3 mL, 1 × 10^5 cells/mL) and the incubation time was 24 h in humidified 5% CO2 atmosphere at 37 °C. The tested concentrations were ¼ × IC50, ½ × IC50 and IC50. Untreated cells (control) were used for comparison with treated cells. The fluorescence was measured using SpectraMax® M5 Microplate Reader (Molecular Devices, Biberach, Germany) at 480/530 nm. All experiments were performed at least in triplicates.

[14] = all 4/4 tested cancer cell lines, read-out: IC50 values against the four tested cancer cell lines

Row | Structure (SMILES) | IC50 [1] [µM] | IC50 [2] [µM] | IC50 [3] [µM] | IC50 [4] [µM] | selectivity ratio at 72 h [5] | IC50 ([6]; Homo sapiens, Caco-2, 72 h) [µM] | selectivity index, MCF7 [1] | selectivity index, DLD-1 [2] | selectivity index, HepG2 [3] | IC50 [7, 14] [µM] | selectivity ratio at 72 h [8] | percentages of cells in sub-G0/G1 phase [9] [%] | Growth (percentage of control) Sub-G0; percentage of cells in sub-G0/G1 phase [9] [%] | cell cycle arrest (phase) [9] | increase of caspases 3/7 activity [10] [fold] | increase of caspase 9 activity [11] [fold] | P2: cells with altered MMP (MMP depletion) [12] | increase in ROS levels [13] [fold] | IC50 ([7]; 3/4 tested cancer cell lines, read-out: IC50 values in 3/4 tested cell lines) [µM] | IC50 ([6]; NR assay, 72 h incubation) [µM]
1 | CCC(/C=C/[C@@H](C)C1CCC2C3=CCC4C[C@@H](O)CCC4(C)C3CCC21C)C(C)C (stereo partly drawn) [Compound 1, β-spinasterol] | > 97.1 | > 97.1 | > 97.1 | > 97.1 | > 1.39 | 69.8 ± 5.12 |  |  |  |  |  |  |  |  |  |  |  |  |  | 
2 | C[C@H]1C(=O)CC[C@@H]2[C@]1(C)CC[C@H]1[C@@]2(C)CC[C@@]2(C)[C@@H]3CC(C)(C)CC[C@]3(C)CC[C@]12C [Compound 2, friedelanone] | 70.8 ± 4.95 | > 93.9 | > 93.9 | > 93.9 |  | > 93.9 | > 1.33 |  |  |  |  |  |  |  |  |  |  |  |  | 
3 | C=C(C)[C@@H]1CC[C@@]2(C)C1C1CCC3[C@@]4(C)CC[C@H](O)C(C)(C)C4CC[C@@]3(C)[C@]1(C)C[C@@H]2O (stereo partly drawn) [Compound 3, 16β-hydroxylupeol] | 9.12 ± 1.02 | 15.4 ± 0.96 | 35.6 ± 3.29 | 52.6 ± 5.11 |  | 20.8 ± 1.53 | 5.76 | 3.41 | 1.47 | < 85 | 2.53 |  |  |  |  |  |  |  |  | 
4 | CC(=O)O[C@H]1CC[C@]2(C)[C@H]3CC=C4[C@@H]5CC(C)(C)CC[C@]5(C)CC[C@@]4(C)[C@]3(C)CC[C@H]2C1(C)C [Compound 4, β-amyrin acetate] | > 85.5 | > 85.5 | > 85.5 | > 85.5 |  | > 85.5 |  |  |  |  |  |  |  |  |  |  |  |  |  | 
5 | C=C(C)[C@@H]1CC[C@]2(C)CC[C@]3(C)[C@H](CC[C@@H]4[C@@]5(C)CC[C@H](OC(C)=O)C(C)(C)[C@@H]5CC[C@]43C)[C@@H]12 [Compound 5, lupeol acetate] | 10.7 ± 0.75 | > 85.5 | > 85.5 | > 85.5 |  | > 85.5 | > 8.00 |  |  |  |  |  |  |  |  |  |  |  |  | 
6 | CO[C@H]1[C@H](O)[C@@H](O)[C@@H](O)[C@@H](O)[C@@H]1O [Compound 6, 5-O-methyl-myo-inositol or sequoyitol] | 167 ± 12 | > 206 | 45.1 ± 3.42 | > 206 |  | > 206 | > 1.24 |  | > 4.57 |  |  |  |  |  |  |  |  |  |  | 
7 | COc1cc(O)c2c(=O)c(O[C@H]3OC(C)[C@@H](O)C(O)[C@H]3O)c(-c3ccc(O)c(O)c3)oc2c1 (stereo partly drawn) [Compound 7, rhamnitrin or 7-O-methylquercetin 3-O-rhamnoside] | 60.9 ± 5.39 | > 86.6 | > 86.6 | 52.3 |  | > 86.6 | 0.86 |  |  |  |  |  |  |  |  |  |  |  |  | 
8 | COc1cc(O)c2c(=O)c(O[C@H]3OC(C)[C@@H](O)C(O)[C@H]3O)c(-c3cc(O)c(O)c(O)c3)oc2c1 (stereo partly drawn) [Compound 8, europetin 3-O-rhamnoside or 7-O-methylmyricetin 3-O-rhamnoside] | 16.7 ± 1.81 | > 83.7 | > 83.7 | > 83.7 |  | > 83.7 | > 5.00 |  |  |  |  |  |  |  |  |  |  |  |  | 
9 | COc1cc2c(c(O)c1CC=C(C)C)C(=O)[C@H](O)[C@@H](c1ccc(O)cc1)O2 [Compound 9, thonningiol] | 0.36 ± 0.01 | 5.65 ± 0.03 | 3.88 ± 0.04 | 45.5 ± 4.17 | 8.6 | 5.28 ± 0.06 | 124.59 | 8.05 | 11.72 | < 10 |  | 28.3 | 11.6 | Go/G1 | 3.97 | 2.67 | 11.2% | 4.46 |  | 
10 | CC1(C)C=Cc2c(O)ccc(C3COc4cc(O)cc(O)c4C3=O)c2O1 (stereo not drawn) [Compound 10, glyasperin F] | 11.1 ± 0.88 | 20.9 ± 1.64 | 16.9 ± 1.2 | > 113 | > 6.42 | 17.6 ± 1.39 | > 10.14 | > 5.41 | > 6.69 | < 85 |  |  |  |  |  |  |  |  |  | 
11 | C=C(CO)C1Cc2cc3c(cc2O1)OCC1c2ccc(O)cc2OC31 (stereo not drawn) [Compound 11, seputhecarpan B] | 11.9 ± 0.94 | 57.9 ± 3.89 | 61.9 ± 4.2 | > 118 | > 1.4 | 84.4 ± 6.32 | > 9.93 | > 2.04 | > 1.91 | < 85 |  |  |  |  |  |  |  |  |  | 
12 | C=C(CO)C1Cc2cc3c(cc2O1)OCC1c2ccc(OC)cc2OC31 (stereo not drawn) [Compound 12, seputhecarpan C] | 13.3 ± 0.67 | 37.8 ± 1.76 | 76.7 ± 7.24 | > 114 | > 1.69 | 67.3 ± 3.98 | > 8.55 | > 3.00 | > 1.48 | < 85 |  |  |  |  |  |  |  |  |  | 
13 | C=CC(C)(C)c1cc2c(cc1O)OCC1c3ccc(OC)cc3OC21 (stereo not drawn) [Compound 13, seputhecarpan D] | 9.78 ± 0.55 | 10.8 ± 1.11 | 67.7 ± 5.18 | > 118 | > 11.3 | 10.5 ± 0.48 | > 12.10 | > 10.97 |  |  |  | 31.1 | 7.6 | Go/G1 | 4.66 | 3.47 | 12.9% | 3.78 | < 10 | 
14 | CC1(C)C=Cc2c(cc(O)c3c(=O)c4cc5c(c(O)c4oc23)OC(C)(C)C=C5)O1 [Compound 14, rheediaxanthone A] | > 102 | > 102 | 14.6 ± 0.93 | 80.3 ± 5.42 | 35.5 | 3.15 ± 0.01 |  |  | 5.50 |  |  |  |  |  |  |  |  |  |  | 
15 | COc1cccc2c1C(=O)c1c(O)c3c(c(O)c1C2=O)C[C@@](O)(C(=O)CO)C[C@@H]3O[C@H]1C[C@H](N)[C@H](O)[C@H](C)O1 [Doxorubicin, doxorubicin, reference compound] | 0.35 ± 0.05 | 0.37 ± 0.05 | 0.18 ± 0.03 | 0.59 ± 0.01 |  |  |  |  |  |  |  | 60 | 27.6 |  |  | 1.3 | up to 26.0% | 2.40 |  | 0.72 ± 0.13
